Values after ≈ are worked out from the molar mass of the structure shown. “Also recorded” adds a separate entry of the source. Read-outs that look alike come from different tables or passages of the source. Values belong to the compound of their own block, whether it stands above or below them.
Legend:
[1] = Comparative solubility data (Table 1); type: physicochemical
Text: (§1) This allows formulation in aqueous solution at high concentration, which is important for preparing parenteral dosage forms.

[2] = Generation of biologically available sulfide in whole rat blood and inhibition by NAEM; type: in vitro ADME
Procedure: The chemical nature of biologically available sulfide in blood was probed with the thiol-reactive reagent N-aminoethyl-maleimide (NAEM) which binds to free thiols and perthiols on proteins and blocks them from participating further in thiol-mediated chemical reactions. Biologically available sulfide was generated in blood by adding 1.3 mM bis-N-acetyl-cystine-trisulfide to 2 mL of whole rat blood. Biologically available sulfide was measured by derivatization with mono-bromo-bimane and levels of bis-N-acetyl-cystine-trisulfide in blood were followed by LC/MS/MS.

[3] = Stability of the dosing solution; type: physicochemical; details: 30 mg/mL dosing solution
Procedure: In one more exemplary embodiment of the methods of making the pharmaceutical compositions of the invention, a dosing solution of bis-N-acetyl-cystine-trisulfide at 30 mg/mL is prepared by weighing the desired amount of solid bis-N-acetyl-cystine-trisulfide into a clear glass vial and chilling the vial to −20° C. The solvent is prepared by chilling a suitable amount of a mixture of 1 volumes of 0.5N NaOH in saline and 2 volumes of above vehicle solution to between 0° C. and 4° C. One mL of this solvent is added to the vial per 30 mg of bis-N-acetyl-cystine-trisulfide contained and the resulting suspension mixed immediately until the solid is fully dissolved. This dosing solution of bis-N-acetyl-cystine-trisulfide is stable for at least 1.5 hours at room temperature and for at least 24 hours when frozen at −20° C. The dosing solution is warmed to room temperature prior to intravenous injection.
Method: Vehicle solution was prepared by mixing 1 volume of solution B, 4 volumes of solution A, and 36 volumes of saline. The pH of the resulting vehicle solution is about 6. To prepare a bis-N-acetyl-cysteine-trisulfide dosing solution at a concentration of 30 mg/ml and about pH 6, the appropriate amount of bis-N-acetyl-cystine-trisulfide was weighed into a clear glass vial and cooled to −20° C. Solutions B and A were mixed at a 1:2 volume ratio, vortexed, and cooled to 4° C. on ice. […]

[4] = Pharmacokinetics of biologically available blood sulfide and plasma thiosulfate after intravenous administration; type: in vivo, Sprague Dawley rats; details: rat, IV bolus 16 or 32 mg/kg
Procedure: Pharmacokinetic experiments were conducted with groups of two to four animals consisting of 9-10 week old, male Sprague Dawley rats, 276-300 grams (Charles River Laboratories, Wilmington, Mass.) with a jugular vein catheter and a femoral vein catheter. Animals were allowed to acclimate in a temperature and humidity controlled environment for 1-3 days prior to the commencement of experimental procedures. Food and water were provided ad libitum.
A baseline blood sample (˜0.4 mL) was collected from each rat through the jugular vein cannula into a heparin-coated syringe (1 mL volume) fitted with a 23G Luer stub adapter. After sampling, the blood volume was replenished by slowly injecting 0.4 mL of a solution of 50 u/mL heparin in saline through the jugular vein cannula.

[5] = Free sulfide in blood measured with sulfide-specific electrode in vena cava; type: in vivo, CD rats; details: rat, 20 mg/kg IV over 1 min, monitored 30 min
Text: Male CD rats (350-450 g, Charles River Laboratories) were anesthetized by IV pentobarbital injection and the right jugular vein carefully exposed and dissected away from the surrounding tissue. An amperometric hydrogen sulfide sensor (World Precision Instruments, Sarasota, Fla., Cat. #ISO-H2S-2) was inserted into the jugular and advanced into the vena cava. Sensor current was monitored using a Powerlab 8/30 (ADInstruments, Colorado Springs, Colo.). Once a stable baseline current was attained, the animals received either vehicle (pH matched saline) or bis-N-acetyl-cystine-trisulfide (20 mg/kg) administered over 1 min via a left femoral vein catheter, and sensor current was monitored over 30 min. Changes in current were calibrated against an IK-1001 standard curve generated with the sensor in deoxygenated 50 mM HEPES, 150 mM NaCl, 1 mM DTPA at 37° C. and pH 7.4.

[6] = Maximum tolerated dose, intravenous injection; details: mouse, in vivo; mice, intravenous injections
Text: The absence of free sulfide is reflected in the low toxicity of the sulfide-releasing compounds.

[7] = tested on: livers of mice, injury by dGal/LPS; assay: Protection from endotoxin (dGal/LPS)-induced liver damage; type: in vivo, C57BL/6 mice
Procedure: Male C57BL/6 mice, (22 to 24 g, Charles River Laboratories) were acclimated in a temperature and humidity controlled environment for 1-3 days prior to commencement of the experimental procedures. All cages were placed on water heating pads set at 30° C. Liver injury was caused by injecting mice intraperitoneally with 800 mg/kg d-Galactosamine (dGal), followed 30 min later by 100 μg/kg lipopolysaccharide (LPS) (FIG. 4) or with 1000 mg/kg dGal, followed 30 min later by 120 μg/kg LPS (FIG. 5). Bis-N-acetyl-cystine-trisulfide at 20 mg/kg (FIG. 4) or 40 and 60 mg/kg (FIG. 5), or vehicle were injected intraperitoneally 30 min later. Blood was collected by cardiac puncture under isoflurane anesthesia five hours after LPS injection. Serum was prepared and markers of liver injury, alanine aminotransferase (ALT) and aspartate aminotransferase (AST) measured.

[8] = tested on: livers of mice, ischemia/reperfusion (I/R) injury; assay: Protection from ischemia/reperfusion-induced liver damage; type: in vivo, C57BL/6 mice; details: last 5 min of 45 min occlusion, ALT five hours after reperfusion
Procedure: C57BL/6 mice were anesthetized with a ketamine/xylazine combination given via intraperitoneal injection. A midline laparotomy was performed to expose the viscera and the stomach and intestines were moved laterally to allow for unimpeded visualization of the liver. A micoaneurysm clip was applied to the hepatic artery and portal vein to create a partial liver ischemia encompassing the medial and left lateral lobes (approximately 70% of the liver). […] The aneurysm clips were removed at 45 minutes to restore hepatic blood flow which was confirmed visually. The abdominal incision was closed using wound clips and animals were recovered in a warmed chamber with 100% oxygen. Five hours after reperfusion, blood was collected by cardiac puncture to measure serum alanine aminotransferase (ALT).

[9] = Comparative vehicle data (Table 2); type: physicochemical
Text: as §1

[10] = tested on: mouse; details: cited from earlier work
[11] = tested on: rat; details: cited from earlier work
[12] = tested on: dog; details: cited from earlier work
[13] = tested on: mammals; details: many mammals; cited from earlier work
[14] = rat blood pretreated with 20 mM NAEM for 30 min
[15] = water, read-out: Solubility Water
[16] = 17% HPBCD, aqueous with cosolvent or surfactant or cyclodextrin, read-out: Solubility 17% HPBCD
[17] = 20% PEG400, aqueous with cosolvent or surfactant or cyclodextrin, read-out: Solubility 20% PEG400

solubility [1, 16]: > 6000 µg/mL | solubility [1, 17]: 110 µg/mL (≈ 416 µM) | solubility [1, 15]: 37 µg/mL (≈ 140 µM)
SMILES: OCCSSSSCc1ccccc1

solubility [1, 15]: > 80000 µg/mL
SMILES: CS(=O)(=O)N[C@@H](CSSSC[C@H](NS(C)(=O)=O)C(=O)O)C(=O)O [drawing 50]

solubility [1, 17]: 310 µg/mL (≈ 1060 µM) | solubility [1, 15]: 220 µg/mL (≈ 750 µM)
SMILES: c1ccc(CCSSSCc2cccnc2)cc1

Water solubility compared to other polysulfides ([1]; water): unexpectedly high water solubility
SMILES: CS(=O)(=O)N[C@@H](CSSSC[C@H](NS(C)(=O)=O)C(=O)O)C(=O)O [bis-N-methylsulfonyl-cystine-trisulfide, (R,R′)-3,3′-trithiobis-2-(methylsulfonylamido)propanoic acid]
Liver ischemia/reperfusion injury (ALT) ([8]; intravenous bolus 2, 5 or 20 mg/kg): protected the liver from ischemia/reperfusion injury | Liver ischemia/reperfusion injury (ALT) ([8]; intravenous bolus 2, 5 or 20 mg/kg, listed as bis-N-methylsulfonamide-cystine-trisulfide): protection of the livers

solubility [1, 16]: 6600 µg/mL (≈ 22400 µM) | solubility [1, 17]: 230 µg/mL (≈ 781 µM) | solubility [1, 15]: 150 µg/mL (≈ 509 µM)
SMILES: OCC(O)CSSSSCc1ccccc1 (stereo not shown)

solubility [1, 17]: 240 µg/mL (≈ 724 µM) | solubility [1, 15]: 100 µg/mL (≈ 302 µM)
SMILES: COC(=O)[C@H](CSSSCc1ccccc1)NC(C)=O

solubility [1, 16]: 18000 µg/mL (≈ 54300 µM) | Solubility Water ([1]; water): poor
SMILES: CC(=O)N[C@@H](CSSSCCc1ccccc1)C(=O)O

The remaining lines, values behind:

SMILES: O=C(O)CCSSSCCC(=O)O
solubility ([1]; aqueous with cosolvent or surfactant or cyclodextrin, 45% HPBCD (stated in the cell of the 17% HPBCD column), read-out: Solubility 45% HPBCD): > 20000 µg/mL | Solubility Water ([1]; water): poor

SMILES: NCCN1C(=O)C=CC1=O [NAEM, N-aminoethyl-maleimide]
Time until consumed in blood ([2]; 20 mM NAEM, preincubation with rat blood): ≤ 1 min | Effect on consumption of bis-N-acetyl-cystine-trisulfide [2, 14]: reduced consumption | Effect on production of biologically available sulfide [2, 14]: almost completely blocked | Effect on production of biologically available sulfide ([2]; rat blood pretreated with 20 mM NAEM for 30 min, listed as N-aminoethyl-maleimide (NAEM)): reduces the generation of biologically available sulfide

SMILES: CC(=O)N[C@@H](CSSSC[C@H](NC(C)=O)C(=O)O)C(=O)O [drawing 49]
solubility [1, 15]: > 40000 µg/mL

SMILES: CC(=O)N[C@@H](CSSSC[C@H](NC(C)=O)C(=O)O)C(=O)O [bis-N-acetyl-cystine-trisulfide, (R,R′)-3,3′-trithiobis-2-acetamidopropanoic acid]
Water solubility compared to other polysulfides ([1]; water): unexpectedly high water solubility | Stability of dosing solution at room temperature ([3]; about pH 6, room temperature): at least 1.5 hours | Stability of dosing solution frozen ([3]; frozen at −20° C.): at least 24 hours | Plasma thiosulfate ([4]; ion chromatography): paralleled blood levels of biologically available sulfide; also recorded: elevation of plasma thiosulfate | Biologically available sulfide in blood ([4]; mono-bromo-bimane derivatization): dose-dependent elevation | Free sulfide in blood [5]: No free sulfide was detectable; also recorded: does not lead to any measurable increase | MTD [6]: ~500 mg/kg | Liver injury (serum ALT and AST) ([7]; 20 mg/kg IP bolus 30 min after LPS, 800 mg/kg dGal, 100 μg/kg LPS, vs vehicle): reduced liver injury | Endotoxin-induced liver injury (ALT, AST) ([7]; 20, 40 and 60 mg/kg IP, blood five hours after LPS (FIGS. 4 and 5)): protected from endotoxin-induced liver injury | Liver injury (serum ALT) ([7]; 40 and 60 mg/kg IP bolus 30 min after LPS, 1000 mg/kg dGal, 120 μg/kg LPS, vs vehicle): reduced liver injury | Liver ischemia/reperfusion injury (ALT) ([8]; intravenous bolus 5, 20 or 60 mg/kg): protection of the livers; also recorded: protected the liver from ischemia/reperfusion injury | Time until consumed in blood ([2]; 1.3 mM in 2 mL whole rat blood, LC/MS/MS): ≤ 5 min | Generation of biologically available sulfide in blood ([2]; 1.3 mM in whole rat blood, mono-bromo-bimane derivatization): generating biologically available sulfide | Preferred Vehicle [9]: aqueous

SMILES: N[C@@H](CSSSC[C@H](N)C(=O)O)C(=O)O
Solubility in words ([1]; water, 90% PEG400, 45% HPBCD, 45% Captisol, 2% Tween 80, 25% cremophor): Not soluble in water, 90% PEG400, 45% HPBCD, 45% Captisol, 2% Tween 80, 25% cremophor

SMILES: C=CCSSCC=C [Di-allyl di-sulfide]
Preferred Vehicle [9]: 40% HPBCD/0.1% citric acid

SMILES: CC(=O)N[C@@H](CS)C(=O)O [N-acetyl-cysteine]
LD50 IV [10]: 3,800 mg/kg | LD50 IV [11]: 1,140 mg/kg | LD50 IV [12]: 700 mg/kg | intravenous LD50 [13]: ≥ 300 mg/kg
